What all share (assay type): biochemical
One experiment has as its target T1, BTK (Homo sapiens, UniProt Q06187).
T1 construct: purified from insect cells as a full-length construct containing a N-terminal 6×-His tag; His6 (N); made in house; host or cells: insect cells (baculovirus, Sf21)
As to the kind of experiment: Btk in vitro inhibitory activity (TR-FRET, mobility shift or radiometric filter binding kinase assay). The note with it: determined using one of the methods outlined in Example 47a, 47b, and 47c. The essentials: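 Full-length N-His-tagged human Btk from insect cells, 8 nM, preincubated 15 min with inhibitor and 0.2 mg/mL poly-Glu-Tyr (4:1) in pH 7.5 Hepes/MgCl2 buffer, then 1 μM ATP for 120 min at RT; radiometric P81 filter read-out. Alternatives: TR-FRET at [ATP]=Km (0.5 nM Btk, IC50 from Ki(app)) or mobility-shift PSR with 12-point 3× curves, 4-parameter fit.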
For orientation: TR-FRET usually uses a lanthanide donor and a delayed reading to cut background.

A further experiment has as its target EGFR (Homo sapiens, UniProt P00533). As to the kind of experiment: EGFR kinase inhibition (in vitro kinase assay).
A further experiment concerns the target Lck (Homo sapiens, UniProt P06239). Description: Lck kinase inhibition (in vitro kinase assay). The essentials:
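TR-FRET kinase assay at [ATP]=Km^ATP, detected with Eu-anti-pTyr antibody and streptavidin-APC after EDTA quench; 665/615 nm ratio read. Ki(app) fitted across compound concentrations, converted to IC50 via IC50={Ki(app)/(1+[ATP]/Km^ATP)}+[E]total/2; [Lck]total=6 nM.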

A further experiment deals with T2, Jak3 (Homo sapiens, UniProt P52333).
T2 sequence (P52333 1-1124): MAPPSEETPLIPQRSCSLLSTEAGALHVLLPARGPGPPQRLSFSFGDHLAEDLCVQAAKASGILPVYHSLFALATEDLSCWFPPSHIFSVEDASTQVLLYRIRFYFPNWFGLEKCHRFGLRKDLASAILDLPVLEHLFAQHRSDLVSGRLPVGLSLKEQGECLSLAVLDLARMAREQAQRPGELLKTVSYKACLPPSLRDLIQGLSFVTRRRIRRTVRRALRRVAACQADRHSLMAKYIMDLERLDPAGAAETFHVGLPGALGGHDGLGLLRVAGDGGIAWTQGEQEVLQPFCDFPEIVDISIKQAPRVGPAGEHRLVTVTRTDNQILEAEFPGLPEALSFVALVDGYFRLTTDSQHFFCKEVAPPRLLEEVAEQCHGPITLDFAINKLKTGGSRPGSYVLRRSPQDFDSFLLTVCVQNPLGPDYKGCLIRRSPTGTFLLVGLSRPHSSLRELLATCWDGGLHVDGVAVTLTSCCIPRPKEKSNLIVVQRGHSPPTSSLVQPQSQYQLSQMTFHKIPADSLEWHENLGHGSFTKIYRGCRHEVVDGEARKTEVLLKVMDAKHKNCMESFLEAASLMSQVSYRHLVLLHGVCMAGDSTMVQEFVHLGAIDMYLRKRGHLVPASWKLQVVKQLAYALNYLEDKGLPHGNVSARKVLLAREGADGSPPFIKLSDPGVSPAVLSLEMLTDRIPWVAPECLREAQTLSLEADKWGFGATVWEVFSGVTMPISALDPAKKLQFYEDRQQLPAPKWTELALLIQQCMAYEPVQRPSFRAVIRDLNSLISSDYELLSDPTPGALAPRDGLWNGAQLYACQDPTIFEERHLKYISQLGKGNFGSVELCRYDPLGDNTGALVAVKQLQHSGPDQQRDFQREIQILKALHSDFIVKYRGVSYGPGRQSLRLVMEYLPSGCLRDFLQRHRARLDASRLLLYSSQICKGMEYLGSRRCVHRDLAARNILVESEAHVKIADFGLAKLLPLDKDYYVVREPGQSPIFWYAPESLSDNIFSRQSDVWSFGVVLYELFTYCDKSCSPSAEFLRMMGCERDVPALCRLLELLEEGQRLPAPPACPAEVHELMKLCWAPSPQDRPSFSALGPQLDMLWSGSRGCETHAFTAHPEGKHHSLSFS
As to the kind of experiment: Jak3 kinase inhibition (in vitro kinase assay).

Our source for the IC50 values is patent US9624224B2, “Inhibitors of Bruton's tyrosine kinase” (Pharmacyclics LLC, priority 2013, dated 2017).

The IC50 is the midpoint of a concentration-inhibition curve.

EGFR, sequence (P00533 25-1210, species assumed): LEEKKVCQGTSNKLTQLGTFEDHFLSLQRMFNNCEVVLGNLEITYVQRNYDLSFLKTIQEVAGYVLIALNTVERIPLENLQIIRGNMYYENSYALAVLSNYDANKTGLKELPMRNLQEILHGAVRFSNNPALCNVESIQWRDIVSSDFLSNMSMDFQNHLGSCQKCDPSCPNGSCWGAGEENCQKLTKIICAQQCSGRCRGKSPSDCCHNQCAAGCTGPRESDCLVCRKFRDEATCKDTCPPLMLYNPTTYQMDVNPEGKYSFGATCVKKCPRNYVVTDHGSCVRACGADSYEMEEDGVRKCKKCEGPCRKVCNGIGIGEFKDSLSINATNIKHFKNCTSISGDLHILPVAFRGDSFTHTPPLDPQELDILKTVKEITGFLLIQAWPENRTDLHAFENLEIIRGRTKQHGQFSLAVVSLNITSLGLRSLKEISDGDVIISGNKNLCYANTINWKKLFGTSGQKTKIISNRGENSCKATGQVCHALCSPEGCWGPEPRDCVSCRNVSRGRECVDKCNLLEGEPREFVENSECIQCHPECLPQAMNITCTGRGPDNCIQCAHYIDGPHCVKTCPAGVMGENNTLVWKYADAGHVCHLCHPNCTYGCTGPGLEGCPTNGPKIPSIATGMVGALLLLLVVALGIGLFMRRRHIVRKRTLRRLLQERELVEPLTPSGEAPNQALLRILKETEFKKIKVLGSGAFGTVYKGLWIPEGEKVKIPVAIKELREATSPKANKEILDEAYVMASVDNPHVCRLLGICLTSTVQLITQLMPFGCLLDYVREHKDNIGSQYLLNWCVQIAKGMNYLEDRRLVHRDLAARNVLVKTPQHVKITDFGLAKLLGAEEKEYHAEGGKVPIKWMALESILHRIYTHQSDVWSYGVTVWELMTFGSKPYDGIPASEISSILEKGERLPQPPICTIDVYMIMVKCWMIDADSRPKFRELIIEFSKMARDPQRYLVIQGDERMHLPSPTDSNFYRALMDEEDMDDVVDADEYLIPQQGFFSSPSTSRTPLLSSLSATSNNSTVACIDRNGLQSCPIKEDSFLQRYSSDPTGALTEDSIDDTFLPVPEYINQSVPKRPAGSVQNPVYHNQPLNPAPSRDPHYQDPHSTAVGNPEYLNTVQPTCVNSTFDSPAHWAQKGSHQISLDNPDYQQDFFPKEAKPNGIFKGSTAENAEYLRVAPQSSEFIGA
Lck, sequence (P06239 whole entry, species assumed): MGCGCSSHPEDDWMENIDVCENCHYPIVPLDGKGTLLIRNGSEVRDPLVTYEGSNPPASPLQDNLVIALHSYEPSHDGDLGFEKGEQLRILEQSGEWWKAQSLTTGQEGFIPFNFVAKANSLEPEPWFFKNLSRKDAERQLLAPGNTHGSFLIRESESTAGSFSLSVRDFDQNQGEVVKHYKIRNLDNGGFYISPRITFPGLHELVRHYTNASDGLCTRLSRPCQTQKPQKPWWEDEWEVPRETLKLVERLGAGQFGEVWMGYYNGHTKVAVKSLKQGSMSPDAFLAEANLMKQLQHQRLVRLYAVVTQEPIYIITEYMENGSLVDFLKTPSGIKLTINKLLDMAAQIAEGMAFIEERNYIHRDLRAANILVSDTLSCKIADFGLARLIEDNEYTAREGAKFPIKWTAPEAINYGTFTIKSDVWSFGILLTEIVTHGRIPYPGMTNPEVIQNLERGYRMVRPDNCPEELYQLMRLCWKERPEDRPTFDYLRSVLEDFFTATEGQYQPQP
T1 sequence (Q06187 whole entry): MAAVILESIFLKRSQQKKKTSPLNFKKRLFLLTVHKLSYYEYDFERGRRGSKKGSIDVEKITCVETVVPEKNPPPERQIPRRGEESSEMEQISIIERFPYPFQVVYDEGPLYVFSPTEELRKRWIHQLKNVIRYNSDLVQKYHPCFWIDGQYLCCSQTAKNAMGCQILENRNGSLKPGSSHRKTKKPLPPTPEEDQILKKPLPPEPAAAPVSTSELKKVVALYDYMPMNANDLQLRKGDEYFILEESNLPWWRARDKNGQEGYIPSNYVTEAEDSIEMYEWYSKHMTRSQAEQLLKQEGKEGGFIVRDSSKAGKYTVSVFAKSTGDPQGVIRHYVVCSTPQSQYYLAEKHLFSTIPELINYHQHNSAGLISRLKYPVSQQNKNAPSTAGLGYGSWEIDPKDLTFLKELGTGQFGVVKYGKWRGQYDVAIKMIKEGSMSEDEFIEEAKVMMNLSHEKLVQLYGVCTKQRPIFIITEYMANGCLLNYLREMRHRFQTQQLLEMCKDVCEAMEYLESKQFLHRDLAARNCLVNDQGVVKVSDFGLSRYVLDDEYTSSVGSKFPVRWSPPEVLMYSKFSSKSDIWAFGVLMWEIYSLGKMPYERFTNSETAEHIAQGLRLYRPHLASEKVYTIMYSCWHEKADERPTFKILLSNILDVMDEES

Take `CN(C/C=C/C(=O)N1CC[C@@H](n2nc(-c3ccc(C(=O)Nc4ncc(C5CC5)s4)cc3)c3c(N)ncnc32)C1)C1CC1` [Example 7, (R,E)-4-(4-amino-1-(1-(4-(cyclopropyl(methyl)amino)but-2-enoyl)pyrrolidin-3-yl)-1H-pyrazolo[3,4-d]pyrimidin-3-yl)-N-(5-cyclopropylthiazol-2-yl)benzamide]: the IC50 on BTK is less than 0.1 µM; against EGFR, less than 0.001 µM; on Lck, less than 0.001 µM; against Jak3 it was less than 0.001 µM.

`Cc1ccnc(NC(=O)c2ccc(-c3nn([C@H]4CC[C@H](NC(=O)/C=C/CN(C)C5CC5)CC4)c4ncnc(N)c34)cc2)c1` [Example 29, 4-(4-amino-1-((1,4-trans)-4-((E)-4-(cyclopropyl(methyl)amino)but-2-enamido)cyclohexyl)-1H-pyrazolo[3,4-d]pyrimidin-3-yl)-N-(4-methylpyridin-2-yl)benzamide]: the IC50 is less than 0.1 µM at BTK, 0.1 to 1 µM against EGFR, more than 10 µM against Lck and more than 10 µM against Jak3.

On to `CN(C/C=C/C(=O)N[C@H]1CC[C@H](n2nc(-c3ccc(C(=O)Nc4cc(C(F)(F)F)ccn4)cc3)c3c(N)ncnc32)CC1)C1CC1` [Example 20, 4-(4-amino-1-((1,4-trans)-4-((E)-4-(cyclopropyl(methyl)amino)but-2-enamido)cyclohexyl)-1H-pyrazolo[3,4-d]pyrimidin-3-yl)-N-(4-(trifluoromethyl)pyridin-2-yl)benzamide], for which the IC50 on BTK is less than 0.001 µM; against EGFR it was 0.1 to 1 µM; against Lck it was less than 0.1 µM; at Jak3, more than 10 µM.
